The text below walks through data of patent publication US10213449B2, “Compositions and methods for treating medulloblastoma” (The Board of Trustees of the Leland Stanford Junior …, priority 2016, dated 2019).

Structures are written as SMILES.

Assay [1] deals with Gli2 binding at Gli target genes in GNPs. Kind of assay: H3K27ac and Gli2 Chipseq in GNPs purified from TBB-injected P7 mice. The conditions noted are these: two injections of TBB (30 mg/kg) over 18 h. In kind it is in vivo, mouse. On the procedure:
Brd4 occupancy at both Gli1 and Gli2 promoters was blocked by the addition of TBB (FIG. 3e). Given that Brd4's primary role as a reader of H3K27ac histone modifications, whether the effect of TBB on Gli target genes correlated with H3K27ac in GNP on a genome-wide scale was next examined. GNPs were purified from P7 mice following two injections of TBB over an 18 h period. Chipseq using H3K27ac and Gli2 antibodies were performed and Gli target genes were binned into either ‘high’ or low H3K27ac′ groups. […] For example, Gli1 had low H3K27ac in GNPs but high H3K27ac in NIH 3T3's. In contrast, Gli2 and Ptch both had high H3K27ac marks in both GNPs and NIH 3T3's.
Wildtype CD1-Elite (Charles River strain 482) P7 mice were randomized to control or treatment groups then given two injections of DMSO (control) or TBB (30 mg/kg) q12h×2. Mice were sacrificed and GNPs were isolated as described in “GNP isolation”. Chomatin immunoprecipitation was performed as previously described. GNPs were cross-linked in 1% formaldehyde for 10 minutes at RT then fixation was stopped by adding 2.5M glycine for 10 minutes. […] ChIP and input DNA was quantified using Qubit DS DNA HS assay as per manufacturer's protocol (ThermoFisher Q32851). […] Library was quantified via Qubit DS DNA HS assay and library quality was determined using an Agilent 2100 Bioanalyzer. […]

The subject of assay [2] is GNP proliferation / cerebellum. Kind of assay: CK2 inhibition in developing mouse (cerebellar development). It counts as in vivo. Particulars: mice injected with TBB between P3-P7 (30 mg/kg IP bid). On the procedure:
The role of CK2 in cerebellar development was next investigated by injecting mice with the CK2 inhibitor TBB between P3-P7 (FIG. 2e).
Math1/nGFPtransgenic mice^8 were treated with DMSO or TBB (30 mg/kg IP bid) (EMD 218697) from […] then sacrificed 6 h following their final treatment. Brains were dissected, fixed in 4% PFA overnight then transferred into 20% sucrose for 24 h. Sections were mounted in O.C.T and sectioned at 20 μm then air-dried for 20 min prior to storing at −20° C. for up to 2 months. Sections were blocked in 0.2% triton X-100 and 2% goat serum diluted in sterile PBS for 1 h at RT. Primary antibodies used were: anti-NeuN Ab (1:200, COT: 2459079, EMD Millipore), anti-Tag1 Ab (1:100, antibody derived in the Scott lab) and TUNEL staining as per manufacturers instructions (Roche In situ Cell Death Detection Kit, cat. no. 1 684 809). All sections were incubated in primary antibody overnight at 4° C. and counter-stained with Hoechst33258 (final concentration 1 μl/ml in PBS) at RT for 10 min. Images were taken on a Leica TCS SP8 confocal microscope. Images were randomized and all measurements (length, width, Atoh-1, Tag1, TUNNEL staining) were performed by a blinded collaborator. Cerebellar folia length was compared between matched sections of control and treated mice by measuring the maximal length from the mid-base to the tip of the culmun (lobule 4/5). Culmen width was measured […] from the base of the folia between lobules 5 and 6. Prism statistical analysis software was used (GraphPad Software, CA) to calculate significance as determined by two-tailed T-tests.

With `Brc1c(Br)c(Br)c2[nH]nnc2c1Br` [TBB, 4,5,6,7-tetrabromo-2H-benzotriazole], the “Gli binding at 'high' H3K27ac marked Gli target genes compared to low H3K27ac marked genes” value in assay [1] is on record as “statistically significant decrease”. Besides, in assay [2], the GNP-dependent foliary width entry is listed as “decrease”, the apoptosis result is on record as “no significant change”, the cerebellar size result is on record as “decrease” and the foliary length entry is “no significant change”. Besides, in assay [2], the “number of ATOH-1 positive proliferating GNPs” value is “decrease” and the rate of differentiation entry is reported as “no significant change”.
